Patent publication US4481137A, “Glycoproteins and processes for their production” (Mochida Pharmaceutical Co., Ltd., priority 1982, dated 1984)
In brackets after ≈: the same amount, converted by molar mass. Several values for one entry are separate records, joined by “and”; a condition that tells them apart may be missing. Equal values may be shown once.

How the values were obtained:
Sarcoma 180 = assay: Influence on mice transplanted with Sarcoma 180, survival; assay type: in vivo, mouse
Text: (§1) Male mice (ddY-Strain) weighing 25-30 g were intraperitoneally transplanted with 3×10^6 cells per animal of Sarcoma 180 or Ehrlich ascites tumor and the period of survival in days was observed.

mouse melanoma B 16 = assay: Influence on the survival period of melanoma bearing mice; assay type: in vivo
Text: BDF1 -strain male mice weighing 20-25 g had transplanted subcutaneously in their back 10^6 cells per animal of mouse melanoma B 16, and the survival days were observed.

Lewis's lung cancer = assay: Influence on the lung metastasis of cancer; assay type: in vivo, mouse; conditions: mean ± SE
Protocol: Groups of BDF1 -strain male mice weighing 20-30 g, 6 animals in each group, had transplanted subcutaneously into their backs 2 mm square segments of Lewis's lung cancer. […] On the 21st day after transplantation, the mass of primary tumor was isolated and weighed, and the number of the metastasized nodes in the animal's lungs was calculated according to the method of Wexler, H. (J. Natl. Cancer Institute, Vol. 36 641 (1966)).

mouse leukemia L1210 = assay: Influence on the survival days of leukemic mice, L1210; assay type: in vivo
Text: (§2) BDF1 -strain male mice weighing 20-25 g were intraperitoneally transplanted with 10^5 cells per animal of mouse leukemia L1210 or 10^6 cells per animal of mouse leukemia […], and the period of survival in days was observed.

Lewis's lung carcinoma = assay: Influence on the survival days of lung carcinoma bearing mice; assay type: in vivo, mouse
Text: BDF1 -strain male mice weighing 20-25 g were transplanted with 2×10^6 cells of Lewis's lung carcinoma intramuscularly to the right thigh, and the survival days were observed.

Ehrlich ascites tumor = assay: Influence on mice transplanted with Ehrlich ascites tumor, survival; assay type: in vivo, mouse
Text: as §1

mouse leukemia P388 = assay: Influence on the survival days of leukemic mice, P388; assay type: in vivo
Text: as §2

[1] = test system: acute myelogenous leukemia cells M-1; assay: Effect on inducing differentiation of tumor cells; assay type: cell-based; conditions: 20.0 ng/ml, 48 h (control 1)
Protocol: According to the method of Hozumi, M. et al (Cancer Research, Vol, 40, 2919-2924 (1980)), 5×10^5 cells of acute myelogenous leukemia cells M-1 (supplied from Dr. Motoo Hozumi, Saitama Cancer Center) were suspended in 1 ml of Eagle's medium containing 10% calf serum and also containing amino acids and vitamins in amounts twice the ordinary levels, to which each test substance had been added, and cultured at 37° C. for 48 hours in a 5% CO2, 95% air atmosphere. Thereafter, the cells were resuspended in a medium containing 0.2% polystyrene latex particles (Dow Chemical Co.) and incubated at 37° C. for 4 hours. Then the total number of cells which phagocytotized the particles and the total number of cells were counted under a light microscope, and the differentiation rate was calculated from the ratio of these cells.

intestine 407 cells = assay: Selectivity of cytotoxic effect, normal cells intestine 407; assay type: cell-based, Human; conditions: intestine 407 (normal), 37°C
Protocol: (§3) Samples of 10^5 cells of each of tumor cell lines including KB cells (nasopharynx cancer), MX-1 cells (breast cancer, supplied from Dr. Shigeru Tsukagoshi, Cancer Institute), HEp-2 cells (throat cancer) and HEL cells (hepatoma, Flow Co.) and of normal cell lines including intestine 407 cells, Girardi heart cells, Chang Liver cells, Vero cells (monkey kidney) and MDCK cells (dog kidney) (Flow Co.), all of which had been precultured for 24 hours respectively, and 10^5 cells of each of P388 and L1210 cells (leukemia, supplied from Dr. Shigeru Tsukagoshi, Cancer Institute), which were used immediately, were each cultured in 1 ml of Eagle's medium containing 10% calf serum and each test substance at 37° C. for 48 hours in a 5% CO2, 95% air atmosphere. Thereafter the number of the viable cells not stained by Trypan Blue was counted under a light microscope, and the concentration of the test substance at which 50% of the cells are killed was calculated against a control taken as 100. […] One unit of the Lymphotoxins and CBF is expressed by a conventional index which is based on the cytotoxicity on mouse L cells (Eds., Bloom, B. R. & Grade, P. R. "In Vitro Methods in Cell-mediated Immunity", Academic Press,1979).

KB cells = assay: Selectivity of cytotoxic effect, KB cells (nasopharynx cancer); assay type: cell-based, Human; conditions: 48 h, 37°C
Protocol: as §3

[2] = test system: tumor cells and normal cells; assay: Cytotoxicity, selectivity tumor cells versus normal cells; assay type: cell-based
Text: One unit of CB is defined to be the amount of the substance at which the growth of 10^5 nasopharynx cancer of KB cell is inhibited by 50%.
as §3

P388 cells = assay: Selectivity of cytotoxic effect, P388 cells (leukemia); assay type: cell-based, Mouse; conditions: P388, 48 h, 37°C
Protocol: as §3

human breast cancer MX-1 = assay: Influence on breast cancer bearing mice; assay type: in vivo, BALB/C strain nude mice; conditions: daily dose 0.5 mg/kg, mean ± SE (control 9.7 ± 2.2)
Protocol: BALB/C strain nude mice weighing 20-25 g, 6 animals in each group, had transplanted subcutaneously into their backs 2 mm square segments of human breast cancer MX-1. CBX3 obtained in Example 26 or 29 was intravenously administered into the mice for 14 days from the 14th day after the transplantation. On the 15th day after the first administration,the volume of the primary tumor was measured.

Vero cells = assay: Selectivity of cytotoxic effect, normal cells Vero (monkey kidney); assay type: cell-based; conditions: 48 h, 37°C
Protocol: as §3

HEp-2 cells = assay: Selectivity of cytotoxic effect, HEp-2 cells (throat cancer); assay type: cell-based, Human; conditions: HEp-2, 48 h, 37°C
Protocol: as §3

MDCK cells = assay: Selectivity of cytotoxic effect, normal cells MDCK (dog kidney); assay type: cell-based; conditions: 48 h, 37°C
Protocol: as §3

HEL cells = assay: Selectivity of cytotoxic effect, HEL cells (hepatoma); assay type: cell-based, Human; conditions: 48 h, 37°C
Protocol: as §3

MX-1 cells = assay: Selectivity of cytotoxic effect, MX-1 cells (breast cancer); assay type: cell-based, Human; conditions: MX-1, 48 h, 37°C
Protocol: as §3

[3] = test system: Primary Culture Rat Liver; assay: Selectivity of cytotoxic effect, primary culture rat liver; assay type: cell-based; conditions: primary culture rat liver (normal), 48 h, 37°C; read-out: Concentration for 50% Inhibition of Growth
[4] = test system: 3-Methylcholanthrene-induced tumor; assay: Influence on methylcholanthrene-induced tumor; assay type: in vivo, ddY-strain mice; conditions: daily dose 0.5 mg/kg, mean ± SE (control 10.5 ± 2.3)
Protocol: 3-Methylcholanthrene dissolved in olive oil was subcutaneously injected to the lateral abdomen of ddY-strain mice, weighing 20-25 g, 8 animals in each group, at 0.5 mg per mouse. CBX3 obtained in Example 26 or 29 was intravenously administered to the mice once a day for 21 days from about 60 days after the 3-Methylcholanthren injection. On the 21st day after the first CBX3 administration, the volume of the tumor was measured.

L1210 cells = assay: Selectivity of cytotoxic effect, L1210 cells (leukemia); assay type: cell-based, Mouse; conditions: L1210, 48 h, 37°C
Protocol: as §3

Chang Liver cells = assay: Selectivity of cytotoxic effect, normal cells Chang Liver; assay type: cell-based, Human; conditions: 48 h, 37°C
Protocol: as §3

[5] = test system: tumor cells and normal cells; conditions: as reported in the literature; cited from earlier work
[6] = Homo sapiens, read-out: Concentration for 50% Inhibition of Growth
[7] = daily dose 0.5 mg/kg, 0.5 mg/kg
[8] = Mus musculus, read-out: Concentration for 50% Inhibition of Growth

With O=P1(N(CCCl)CCCl)NCCCO1 (centres unmarked) [Cyclophosphamide] the “Average Survival Days (% of control group)” value (Sarcoma 180; Sarcoma 180, daily dose 20 mg/kg, 20 mg/kg) was 172% and 170%, the “Average Survival Days (% of control group)” value (mouse melanoma B 16; melanoma B 16, daily dose 20 mg/kg) was 158% and the “Tumor Weight” value (Lewis's lung cancer; Table 7-1 Experiment 1 (control 9.6 ± 1.9), daily dose printed 20 unit/kg) was 3.4 ± 0.7 g. For the same compound, the “No. of Metastasized Nodes in Lung” value (Lewis's lung cancer; Table 7-1 Experiment 1 (control 29.2 ± 7.3), daily dose printed 20 unit/kg) was 0.4 ± 0.2, the “Tumor Weight” value (Lewis's lung cancer; Table 7-2 (control 7.8 ± 0.5), daily dose printed 20 unit/kg) was 3.5 ± 0.6 g and the “No. of Metastasized Nodes in Lung” value (Lewis's lung cancer; Table 7-2, daily dose printed 20 unit/kg) was 0.6 ± 0.3. The “Average Survival Days (% of control group)” value (mouse leukemia L1210; L1210, daily dose 20 mg/kg, 20 mg/kg) was 172% and 149%, the “Average Survival Days (% of control group)” value (Lewis's lung carcinoma; daily dose 20 mg/kg, 20 mg/kg) was 163% and 164% and the “Average Survival Days (% of control group)” value (Ehrlich ascites tumor; daily dose 20 mg/kg, 20 mg/kg) was 212% and 206%. For the same compound, the “Average Survival Days (% of control group)” value (mouse leukemia P388; P388, daily dose 20 mg/kg, 20 mg/kg) was 147% and 145%.

For C[C@@H]1C[C@H]2[C@@H]3CCC4=CC(=O)C=C[C@]4(C)[C@@]3(F)[C@@H](O)C[C@]2(C)[C@@]1(O)C(=O)CO [Dexamethasone], the “Differentiation Rate” value [1] was 25%.

In the case of CO[C@@]12[C@H](COC(N)=O)C3=C(C(=O)C(C)=C(N)C3=O)N1C[C@@H]1N[C@@H]12 [Mitomycin C], the “Average Survival Days (% of control group)” value (Sarcoma 180; Sarcoma 180, daily dose 0.5 mg/kg, 0.5 mg/kg) is reported as 140% and 138% and 142%, the “Average Survival Days (% of control group)” value (mouse melanoma B 16; melanoma B 16, daily dose 0.5 mg/kg, 0.5 mg/kg) is reported as 140% and the IC50 (intestine 407 cells; Homo sapiens, Intestine 407, 48 h, read-out: Concentration for 50% Inhibition of Growth) is reported as 32 µg/mL (≈ 95.7 µM). The “Concentration for 50% Inhibition of Growth” value (intestine 407 cells; 48 h) was 35 µg/mL, the “Concentration for 50% Inhibition of Growth” value (KB cells) was 35 µg/mL and the IC50 (KB cells; [6]) was 34 µg/mL (≈ 102 µM). The “Cytotoxicity, selectivity for tumor cells over normal cells (in words)” value [2] was “nonselective cytotoxicity to the normal cells and the tumor cells”, the “Average Survival Days (% of control group)” value (mouse leukemia L1210; L1210, daily dose 0.5 mg/kg, 0.5 mg/kg) was 128% and 136% and the “Average Survival Days (% of control group)” value (mouse leukemia L1210; L1210, dose 5.0 mg/kg (Table 4-3)) was 132%. The “Average Survival Days (% of control group)” value (Lewis's lung carcinoma; [7]) was 121% and 120%, the IC50 (P388 cells; [8]) was 36 µg/mL (≈ 108 µM) and the “Concentration for 50% Inhibition of Growth” value (P388 cells) was 37 µg/mL. The “Tumor Volume” value (human breast cancer MX-1) was 4.4 ± 1.1 cm^3, the “Concentration for 50% Inhibition of Growth” value (Vero cells) was 50 µg/mL and the IC50 (Vero cells; Primates, Vero, read-out: Concentration for 50% Inhibition of Growth) was 52 µg/mL (≈ 156 µM). For the same compound, the “Average Survival Days (% of control group)” value (Ehrlich ascites tumor; [7]) was 168% and 164% and 166%, the “Concentration for 50% Inhibition of Growth” value (HEp-2 cells) was 18 µg/mL and the IC50 (HEp-2 cells; [6]) was 17 µg/mL (≈ 50.8 µM). For the same compound, the “Concentration for 50% Inhibition of Growth” value (MDCK cells) was 44 µg/mL, the IC50 (MDCK cells; Canis lupus familiaris, MDCK, read-out: Concentration for 50% Inhibition of Growth) was 41 µg/mL (≈ 123 µM) and the “Concentration for 50% Inhibition of Growth” value (HEL cells) was 25 µg/mL. The IC50 (HEL cells; [6]) was 26 µg/mL (≈ 77.8 µM), the IC50 (MX-1 cells; Homo sapiens, MX1, 48 h, read-out: Concentration for 50% Inhibition of Growth) was 32 µg/mL (≈ 95.7 µM) and the “Concentration for 50% Inhibition of Growth” value (MX-1 cells) was 30 µg/mL. For the same compound, the IC50 [3] was 61 µg/mL (≈ 182 µM), the “Tumor Volume” value [4] was 6.6 ± 1.3 cm^3 and the “Concentration for 50% Inhibition of Growth” value (L1210 cells) was 44 µg/mL. For the same compound, the IC50 (L1210 cells; [8]) was 43 µg/mL (≈ 129 µM), the “Average Survival Days (% of control group)” value (mouse leukemia P388; P388, daily dose 0.5 mg/kg, 0.5 mg/kg) was 133% and 130% and the “Average Survival Days (% of control group)” value (mouse leukemia P388; P388, dose 5.0 mg/kg (Table 4-3)) was 141%. The “Concentration for 50% Inhibition of Growth” value (Chang Liver cells) was 21 µg/mL and the IC50 (Chang Liver cells; Homo sapiens, Chang liver, read-out: Concentration for 50% Inhibition of Growth) was 19 µg/mL (≈ 56.8 µM).

For Tumor Necrosis Factor, the “Cytotoxic effect, selectivity for tumor cells over normal cells (in words)” value [5] is listed as “selective cytotoxic effect on tumor cells”.
